Measured values as given in a melting point compilation (Tetko et al.).

Conditions: a range is the spread between reports

| SMILES | melting point [°C] |
| --- | --- |
| CCC(CC)CC | -119 |
| CC(C)C(=O)O | -47 to -46 |
| COc1ccccc1N | 5 to 6.2 |
| CC1=CC(=O)CC(C)(C)C1 | -8.1 to -8 |
| NC(=O)c1cccc(N)c1 | 113 to 116 |
| COc1ccc(C(=O)O)cc1O | 252 to 253 |
| COc1cccc(OC)c1OC | 44 to 48.5 |
| O=C(O)CCCc1ccccc1 | 48 to 52 |
| CCC(C)C(C)(C)CC (stereo not drawn) | -101 |
| COC(=O)C1C2CC3c4[nH]c5cc(OC)ccc5c4CCN3CC2CC(OC(=O)c2cc(OC)c(OC)c(OC)c2)C1OC (stereo not drawn) | 264 to 265 |
| COc1ccccc1[N+](=O)[O-] | 9.4 to 10.5 |
| O=C(CCC(=O)OCc1ccccc1)OCc1ccccc1 | 45 to 49.5 |
| CC(=O)CCC(=O)O | 29 to 33 |
| C(#Cc1ccccc1)c1ccccc1 | 60 to 63 |
| C=CCSCC=C | -85 to -83 |
| CCCCCCCCCCCCCCCCCCN | 52.9 to 56 |
| CCC(C)(C)CC | -135 to -134 |
| Nc1ccc(Br)cc1 | 63 to 66.4 |
| O=CN1CCOCC1 | 21 to 22 |
| N#Cc1c[nH]cc1-c1cccc2c1OC(F)(F)O2 | 199 |
| CCC(C)(O)CC | -24 to -23.6 |
| CCCCCCC(C)C | -80.3 to -80 |
| Nc1c(Br)cc(Br)cc1Br | 120 to 122 |
| CCCCC(N)=O | 103 to 106 |
| N#Cc1cccc(C(=O)O)c1 | 219 to 223 |

| SMILES | melting point [°C] |
| --- | --- |
| COc1cccc(N)c1 | -1 to 0 |
| CN1CCN(C2=Nc3cc(Cl)ccc3Nc3ccccc32)CC1 | 184 |
| C=Cc1ccc(C(=O)O)cc1 | 142 to 144 |
| CNC(=O)NC(C)=O | 178 to 180 |
| CC1(C)CCCCC1 | -33.3 to -33 |
| COc1ccc2cc(OC)ccc2c1 | 150 to 153 |
| O=C(CCNNC(=O)c1ccncc1)NCc1ccccc1 | 151 to 152 |
| Cc1ccc([N+](=O)[O-])c(O)c1 | 53 to 55 |
| O=C1OCc2ccccc21 | 74 to 75 |
| Oc1cccc(Br)c1 | 30 to 33 |
| CC(C)(C)c1cc(O)c(C(C)(C)C)cc1O | 216 to 218 |
| C=C(C)C(C)(C)C | -110 |
| OC(c1ccccc1)c1ccccc1 | 66 to 69 |
| O=C(O)COc1ccc(Cl)cc1Cl | 138 to 140 |
| CCCc1ccccc1C | -60.3 to -60 |
| OCC(O)C(O)CO (stereo not drawn) | 122 |
| CNc1ccccc1[N+](=O)[O-] | 35 to 38 |
| CCc1cccnc1 | -77 to -76.9 |
| C=CCNCC=C | -88.4 to -88 |
| CCCCCCC | -91 to -90.6 |
| CC(=O)Nc1cccc(Cl)c1 | 77 to 80 |
| COc1ccccc1OCC(O)CO (stereo not drawn) | 78.5 to 81 |
| CCOCOCC | -66.5 to -66 |
| Clc1ncccn1 | 66 to 67 |
| CCCCCCCCCCCCCCCCCCCCCCCCCCCCC | 63.7 to 66 |

| SMILES | melting point [°C] |
| --- | --- |
| CCOC(=O)c1ccco1 | 34 to 34.5 |
| CC#CC(=O)O | 77 to 78 |
| OCC(F)F | -28.2 to -28 |
| CC(=O)Nc1nnc(S(N)(=O)=O)s1 | 258 to 260 |
| CN=C=S | 32 to 36 |
| C=C(C)Cl | -138 to -137 |
| Nc1ccncc1N | 216 to 220 |
| Cc1cc(O)ccc1Cl | 66 to 67 |
| NC(N)=NC(=O)c1nc(Cl)c(N)nc1N | 240 to 241 |
| O=C(O)CCCCC1SCC2NC(=O)NC21 (stereo not drawn) | 230 to 232 |
| C1=CCCCC1 | -104 |
| CCCCCCCCCCCCCCC | 9.9 to 10 |
| Clc1ccccc1 | -46 to -45 |
| CCCC(C)C1(CC)C(=O)NC(=O)NC1=O (stereo not drawn) | 130 |
| c1ccc(C2CCCCC2)cc1 | 5 to 7.3 |
| Cc1c(Br)cc(Br)c(O)c1Br | 82 to 84 |
| CC12CCC(C1)C(C)(C)C2=O (stereo not drawn) | 5 to 6.1 |
| N#CCc1ccccc1[N+](=O)[O-] | 82 to 84 |
| Cc1cc(C)cc(C(C)(C)C)c1 | -22 to -18 |
| Oc1cccc(O)c1O | 132 to 134 |
| O=[N+]([O-])c1ccc(Oc2ccc(C(F)(F)F)cc2[N+](=O)[O-])cc1 | 90 to 94 |
| CC(C)CC1CCCC1 | -115 |
| Nc1ccccc1Nc1ccccc1 | 79 to 79.5 |
| O=[N+]([O-])c1cc([N+](=O)[O-])c2ccccc2c1O | 131 to 132 |
| Oc1c(Cl)cc(Cl)c2cccnc12 | 180 to 181 |

| SMILES | melting point [°C] |
| --- | --- |
| CCN(CC)C(=S)SSC(=S)N(CC)CC | 70 to 71.5 |
| COc1cc(C=O)cc(OC)c1O | 112 to 113 |
| CCCCCCS | -81 to -80 |
| NC(=O)c1ccc(F)cc1 | 156 |
| CCCC(C)Br (stereo not drawn) | -96 to -95.5 |
| COC(=O)c1ccc([N+](=O)[O-])cc1 | 95 to 96 |
| O=C(O)c1c(Cl)cc(Cl)cc1Cl | 162 to 163 |
| COc1ccccc1O | 28 to 32 |
| CC(=O)CC(=O)OC(C)C | -27.3 to -27 |
| COC(=O)CCl | -32.1 to -32 |
| CN(C)c1ccc(C(=O)c2ccccc2)cc1 | 89 to 92.5 |
| ClC1=C(Cl)C2(Cl)C3C(Cl)C(Cl)CC3C1(Cl)C2(Cl)Cl (stereo not drawn) | 104 to 106 |
| CCCCCCCCCC(C)O (stereo not drawn) | 0 to 2 |
| C1CCOC1 | -108 |
| N#Cc1cccc(N)c1 | 52 to 54.3 |
| CCCCCCCO | -36 to -33.2 |
| COC(=O)c1ccc(Br)cc1 | 79 to 81 |
| CC1(C)CC(C)(c2ccccc2)c2ccccc21 (stereo not drawn) | 50 to 52.5 |
| Oc1c(Br)cc(Br)c2cccnc12 | 196 to 201 |
| Nc1ccc(S(=O)(=O)Nc2ccccn2)cc1 | 190 to 192 |
| N#CC(C#N)=C(C#N)C#N | 198 to 199 |
| O=C1CCC(=O)N1Cl | 148 to 150 |
| CC(=O)O | 16.6 to 17 |
| O=C(c1ccccc1)C1CCCCC1 | 55 to 56 |
| CC=C(C)C | -134 |

| SMILES | melting point [°C] |
| --- | --- |
| CC(Br)C(C)(Br)Br (stereo not drawn) | 1.8 to 2 |
| CCOC(C)=O | -84 to -83.6 |
| COC(=O)c1ccc(O)cc1O | 118 to 120 |
| CC(Oc1ccccc1)C(=O)O (stereo not drawn) | 118 |
| Cc1cccc(I)c1 | -27.2 to -27 |
| O=C(O)CI | 81 to 82.5 |
| O=C(c1ccc(Cl)cc1)c1ccccc1Cl | 65 to 67 |
| CC(Cl)(Cl)Cl | -33 to -30 |
| CCC#CCCCC | -104 |
| O=[N+]([O-])c1ccc(F)cc1O | 33 to 36 |
| CCCCOCCO | -79 to -74.8 |
| N#Cc1c2ccccc2cc2ccccc12 | 175 to 177 |
| C[Si]1(C)O[Si](C)(C)O[Si](C)(C)O[Si](C)(C)O1 | 17.5 to 18 |
| CCCCOC=O | -92 to -91.5 |
| O=C1C(=O)c2cccc3cccc1c23 | 258 to 261 |
| CC(Br)CCCBr (stereo not drawn) | -34.4 to -34 |
| CNc1ccc(Cl)cc1C(=O)c1ccccc1 | 94 to 96 |
| CCCCCCCCCC(=O)Cl | -35 to -34.5 |
| N#CC(Br)(Br)C(N)=O | 124 |
| CC(C)C(C)C | -129 to -128 |
| O=C(O)COc1ccccc1Cl | 148 to 150 |
| CCCN(CC1CC1)c1c([N+](=O)[O-])cc(C(F)(F)F)cc1[N+](=O)[O-] | 32 to 32.5 |
| CC1=CCC(C(C)(C)O)CC1O (stereo not drawn) | 130 to 131 |
| CCC(C)C | -160 |
| CCCC#CC(=O)O | 25 to 27 |

| SMILES | melting point [°C] |
| --- | --- |
| O=C(O)c1cccc([N+](=O)[O-])c1C(=O)O | 210 to 212 |
| CC12CCC(CC1)C(C)(C)O2 | 1 to 1.5 |
| CC1CC(C)C(C)C1 (stereo not drawn) | -133 to -131 |
| Cc1cc(=O)cc(C)o1 | 132 to 134 |
| CCc1ccc2c(c1)C(=O)c1ccccc1C2=O | 109 to 110 |
| Cc1cc(C)[nH]n1 | 107 to 108 |
| CC(C)S | -131 to -130 |
| OCc1ccc(Cl)cc1 | 70 to 75 |
| c1ccc([Si](c2ccccc2)(c2ccccc2)c2ccccc2)cc1 | 236 to 237 |
| NCC(CC(=O)O)c1ccc(Cl)cc1 (stereo not drawn) | 207 to 208 |
| C=CCCCCCC | -102 |
| CC(F)(F)Cl | -131 |
| ClC(Cl)Br | -57 to -55 |
| CCCCCCCCCCCCCC=O | 20.5 to 24 |
| CCC1CCC1 | -143 |
| ClC1C(Cl)C(Cl)C(Cl)C(Cl)C1Cl (stereo not drawn) | 159 to 160 |
| COc1ccccc1C(=O)c1ccccc1 | 37 to 41 |
| ICCCCI | 5.8 to 6 |
| CI | -67 to -64 |
| OCCc1c[nH]c2ccccc12 | 58 to 59 |
| NC(=O)c1cccc(Br)c1 | 155 |
| CCCCCCCCCCCCCCCCCCC(=O)O | 69 to 69.4 |
| O=S(=O)(F)F | -136 |
| Nc1ccc2ccccc2c1 | 112 to 113 |
| c1ccc(Cn2ccnc2)cc1 | 69 to 71 |

| SMILES | melting point [°C] |
| --- | --- |
| Cc1ccc2[nH]cnc2c1 | 112 to 116 |
| Cc1cccc(C)n1 | -7 to -6 |
| Oc1ccc(-c2ccccc2)cc1 | 165 to 167 |
| Cc1ccc(C(C)C)c(O)c1 | 49 to 51.5 |
| O=C(O)c1c(F)c(F)c(F)c(F)c1F | 101 to 102 |
| CCCCCCCCCCCC(=O)O | 43.2 to 45 |
| CS(=O)(=O)c1ccc(C(O)C(CO)NC(=O)C(Cl)Cl)cc1 (stereo not drawn) | 165 |
| CC(=O)OCCc1ccccc1 | -31.1 to -31 |
| Cc1cc(Cl)ccc1OC(C)C(=O)O (stereo not drawn) | 94 to 95 |
| CCCc1ccc(O)cc1 | 21 to 22 |
| COc1cccc(O)c1O | 42 to 42.8 |
| CCOc1ccc(C#N)cc1 | 61.5 to 62 |
| C1=CC=CCC=C1 | -80 to -79.5 |
| COc1ccc(N)cc1 | 57 to 59 |
| BrC1CCCCC1 | -57 to -56.5 |
| O=C(O)CCCc1c[nH]c2ccccc12 | 123 to 124 |
| O=C(O)Cc1c(Cl)cccc1Cl | 159 to 160 |
| COc1ccc(C(C)=O)c(O)c1 | 49 to 52.5 |
| CCCOC=O | -93 to -92.9 |
| O=C(O)CCCCc1ccccc1 | 57.5 to 59 |
| Nc1cccc(C(=O)O)c1 | 173 to 175 |
| OCc1ccccc1Cl | 70 to 73 |
| Cc1ccc([N+](=O)[O-])c(C)c1 | 6 to 9 |
